Some results are limits rather than exact numbers.

Data on 5 compounds can be found in patent US8586973B2, “Host material for light-emitting diodes” (Solvay SA, priority 2008, dated 2013).

The data set is described as follows: Solubility tests in organic solvents. The conditions noted are these: 20° C.; for Solubility S in chlorobenzene / Solubility S in toluene: 1 ml solvent, magnetic stirring. Format: physicochemical. The method, then: The solubility tests were carried out at 20° C. by adding 1 ml of solvent to the suitable amount of compound powder in a sampling vial and under magnetic stirring.

`CC(C)[Si](c1ccc2c(c1)c1cc([Si](C(C)C)(C(C)C)C(C)C)ccc1n2-c1ccc(C2(c3ccc(-n4c5ccc([Si](C(C)C)(C(C)C)C(C)C)cc5c5cc([Si](C(C)C)(C(C)C)C(C)C)ccc54)cc3)c3ccccc3-c3ccccc32)cc1)(C(C)C)C(C)C` [Compound IV, 9,9-Bis-(4-phenyl-3,6,3″,6″-tetrakis-triisopropylsilanyl-9′H-carbazole)-9H-fluorene]: the “Solubility S in chlorobenzene (molar)” value is above 42 mM, the “Solubility S in chlorobenzene” value was above 54 mg/mL, the “Solubility S in toluene (molar)” value is above 31 mM and the “Solubility S in toluene” value is above 39 mg/mL.
On the same counts, the results for `CC(C)[Si](c1ccc2c(c1)c1ccccc1n2-c1ccc(C2(c3ccc(-n4c5ccccc5c5cc([Si](C(C)C)(C(C)C)C(C)C)ccc54)cc3)c3ccccc3-c3ccccc32)cc1)(C(C)C)C(C)C` [Compound IX, 9,9-Bis-[4-(3-Triisopropylsilylcarbazol)-phenyl]-fluorene] are above 59 mM, above 57 mg/mL, above 49 mM and above 47 mg/mL.
In the case of `COc1ccc(-n2c3ccc(-n4c5ccc([Si](C(C)C)(C(C)C)C(C)C)cc5c5cc([Si](C(C)C)(C(C)C)C(C)C)ccc54)cc3c3cc(-n4c5ccc([Si](C(C)C)(C(C)C)C(C)C)cc5c5cc([Si](C(C)C)(C(C)C)C(C)C)ccc54)ccc32)cc1` [Compound VI, 9′-(4-Methoxy-phenyl)-3,6,3″,6″-tetrakis-triisopropylsilanyl-9′-[9,3′;6′,9″]tercarbazole], the “Solubility S in chlorobenzene (molar)” value was above 45 mM and the “Solubility S in chlorobenzene” value is above 55 mg/mL.
On the same counts, the results for `COc1ccc(-n2c3ccc(-n4c5ccccc5c5cc([Si](C(C)C)(C(C)C)C(C)C)ccc54)cc3c3cc(-n4c5ccccc5c5cc([Si](C(C)C)(C(C)C)C(C)C)ccc54)ccc32)cc1` [Compound VII, 9-N-(4-Methoxy-phenyl)-3,6-Bis-[(3-Triisopropylsilylcarbazolyl)]carbazole] are above 62 mM and above 56 mg/mL.
On the same counts, the results for `CC(C)[Si](c1ccc2c(c1)c1ccccc1n2-c1ccc2c(c1)c1cc(-n3c4ccccc4c4cc([Si](C(C)C)(C(C)C)C(C)C)ccc43)ccc1n2-c1ccc(F)cc1)(C(C)C)C(C)C` [Compound VIII, 9-N-(4-Fluoro-phenyl)-3,6-Bis-[(3-Triisopropylsilylcarbazolyl)]carbazole] are above 57 mM and above 51 mg/mL.
